From patent US10414731B2, “Substituted oxopyridine derivatives” (priority 2014, dated 2019)

Columns and labels:
human factor XIa = human factor XIa (Homo sapiens (Human), UniProt P03951); assay: Measurement of FXIa inhibition (fluorogenic peptide substrate); format: biochemical; settings: factor XIa from Kordia, substrate Boc-Glu(OBzl)-Ala-Arg-AMC, 22° C., 30 min
Method: (§1) The factor XIa inhibition of the substances according to the invention is determined using a biochemical test system which utilizes the reaction of a peptidic factor XIa substrate to determine the enzymatic activity of human factor XIa. Here, factor XIa cleaves from the peptic factor XIa substrate the C-terminal aminomethylcoumarin (AMC), the fluorescence of which is measured. The determinations are carried out in microtitre plates.
1 μl of the diluted substance solutions is placed into each of the wells of white microtitre plates from Greiner (384 wells). […] After […] of incubation, the enzyme reaction is started by addition of 20 μl of the factor XIa substrate Boc-Glu(OBz1)-Ala-Arg-AMC dissolved in assay buffer (10 μM in assay buffer) from Bachem, the mixture is incubated at room temperature (22° C.) for 30 min and fluorescence is then measured (excitation: 360 nm, emission: 460 nm). The measured emissions of the test batches with test substance are compared to those of control batches without test substance (only dimethyl sulphoxide instead of test substance in dimethyl sulphoxide), and IC50 values are calculated from the concentration/activity relationships.

human plasma kallikrein = human plasma kallikrein (Homo sapiens (Human), UniProt P03952); assay: Determination of the plasma kallikrein activity (fluorogenic peptide substrate); format: biochemical; settings: plasma kallikrein from Kordia, substrate H-Pro-Phe-Arg-AMC, 22° C.
Sequence of human plasma kallikrein (P03952 whole entry, looked up): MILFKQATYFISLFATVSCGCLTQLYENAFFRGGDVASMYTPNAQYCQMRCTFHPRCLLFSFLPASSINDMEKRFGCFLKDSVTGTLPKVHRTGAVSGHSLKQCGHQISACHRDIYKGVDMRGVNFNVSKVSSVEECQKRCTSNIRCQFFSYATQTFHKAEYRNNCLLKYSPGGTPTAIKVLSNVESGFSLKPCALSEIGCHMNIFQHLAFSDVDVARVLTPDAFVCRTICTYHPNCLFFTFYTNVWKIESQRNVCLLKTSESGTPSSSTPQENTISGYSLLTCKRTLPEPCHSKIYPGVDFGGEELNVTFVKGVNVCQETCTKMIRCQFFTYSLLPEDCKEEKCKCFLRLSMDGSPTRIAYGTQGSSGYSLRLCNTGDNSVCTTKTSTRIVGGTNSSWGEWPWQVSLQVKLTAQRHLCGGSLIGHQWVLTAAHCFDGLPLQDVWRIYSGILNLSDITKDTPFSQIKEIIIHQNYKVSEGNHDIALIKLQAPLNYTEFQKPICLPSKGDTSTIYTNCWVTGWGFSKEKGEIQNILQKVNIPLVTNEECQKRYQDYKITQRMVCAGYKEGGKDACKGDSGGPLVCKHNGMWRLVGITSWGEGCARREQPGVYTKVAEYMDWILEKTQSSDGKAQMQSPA
Sequence of human plasma kallikrein (P03952 whole entry partner, looked up): as the sequence (P03952 whole entry, looked up) above
Method: as §1, with “To determine the plasma kallikrein” for “The factor XIa”, “invention,” for “invention is determined using”, “system is used” for “system”, “plasma kallikrein” for “factor XIa”, “plasma kallikrein.” for “factor XIa.”
Test substances are dissolved in dimethyl sulphoxide and serially diluted in dimethyl sulphoxide (3000 μM to 0.0078 μM; resulting final concentrations in the test: 50 μM to 0.00013 μM). 1 μl of the diluted substance solutions is placed into each of the wells of white microtitre plates from Greiner (384 wells). 20 μl of assay buffer (50 mM Tris/HCl pH 7.4; 100 mM sodium chloride solution; 5 mM calcium chloride solution; 0.1% of bovine serum albumin) and 20 μl of plasma kallikrein from Kordia (0.6 nM in assay buffer) are then added successively. After […] of incubation, the enzyme reaction is started by addition of 20 μl of the substrate H-Pro-Phe-Arg-AMC dissolved in assay buffer (10 μM in assay buffer) from Bachem, the mixture is incubated at room temperature (22° C.) for […] and fluorescence is then measured (excitation: 360 nm, emission: 460 nm). The measured emissions of the test batches with test substance are compared to those of control batches without test substance (only dimethyl sulphoxide instead of test substance in dimethyl sulphoxide), and IC50 values are calculated from the concentration/activity relationships.

Sequence of human factor XIa (P03951 whole entry, looked up): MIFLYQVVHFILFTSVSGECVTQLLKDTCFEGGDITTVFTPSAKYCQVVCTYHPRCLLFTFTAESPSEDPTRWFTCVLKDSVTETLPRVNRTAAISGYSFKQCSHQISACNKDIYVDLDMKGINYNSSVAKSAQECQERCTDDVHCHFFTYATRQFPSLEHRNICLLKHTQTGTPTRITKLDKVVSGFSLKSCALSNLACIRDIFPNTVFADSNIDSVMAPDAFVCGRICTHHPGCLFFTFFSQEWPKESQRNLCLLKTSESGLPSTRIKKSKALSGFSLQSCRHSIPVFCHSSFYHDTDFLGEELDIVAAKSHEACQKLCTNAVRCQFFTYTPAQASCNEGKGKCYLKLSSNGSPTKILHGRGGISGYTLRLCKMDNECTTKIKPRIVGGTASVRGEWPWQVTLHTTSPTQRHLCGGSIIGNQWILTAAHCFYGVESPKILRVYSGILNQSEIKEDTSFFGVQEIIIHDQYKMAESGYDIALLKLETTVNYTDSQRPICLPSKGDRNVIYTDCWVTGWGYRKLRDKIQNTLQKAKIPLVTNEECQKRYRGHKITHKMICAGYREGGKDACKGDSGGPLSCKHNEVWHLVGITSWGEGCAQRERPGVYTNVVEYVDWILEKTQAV
Sequence of human factor XIa (P03951 whole entry partner, looked up): as the sequence (P03951 whole entry, looked up) above

Compound	IC50 (human factor XIa)	IC50 (human plasma kallikrein)
CCC(C(=O)Nc1ccc(C(=O)OC2CCN(C)CC2)cc1)n1cc(OC)c(-c2cc(Cl)ccc2C#N)cc1=O (single isomer, unassigned) [Example 13, 1-Methylpiperidin-4-yl 4-({2-[4-(5-chloro-2-cyanophenyl)-5-methoxy-2-oxopyridin-1(2H)-yl]butanoyl}amino)benzoate]	230 nM	120 nM
CCC(C(=O)Nc1ccc(C(=O)OCCN2CCCC2)cc1)n1cc(OC)c(-c2cc(Cl)ccc2C#N)cc1=O (single isomer, unassigned) [Example 16, 2-(Pyrrolidin-1-yl)ethyl 4-({2-[4-(5-chloro-2-cyanophenyl)-5-methoxy-2-oxopyridin-1(2H)-yl]butanoyl}amino)benzoate]		40 nM
CCC(C(=O)Nc1ccc(C(=O)OC[C@H](NC(=O)CN2CCCC2)C(=O)O)cc1)n1cc(OC)c(-c2cc(Cl)ccc2C#N)cc1=O (single isomer, unassigned) [Example 5, O-[4-({2-[4-(5-Chloro-2-cyanophenyl)-5-methoxy-2-oxopyridin-1(2H)-yl]butanoyl}amino)-benzoyl]-N-(pyrrolidin-1-ylacetyl)-L-serine]	60 nM	35 nM
CCC(C(=O)Nc1ccc(C(=O)OC[C@H](NC(=O)[C@@H]2CCCN2)C(=O)O)cc1)n1cc(OC)c(-c2cc(Cl)ccc2C#N)cc1=O (stereo partly drawn) [Example 6, Prolyl-O-[4-({2-[4-(5-chloro-2-cyanophenyl)-5-methoxy-2-oxopyridin-1(2H)-yl]butanoyl}amino)-benzoyl]-L-serine]	65 nM	44 nM
CCC(C(=O)Nc1ccc(C(=O)OC(C)[C@H](N)C(=O)O)cc1)n1cc(OC)c(-c2cc(Cl)ccc2C#N)cc1=O (single isomer, unassigned) [Example 2, O-[4-({2-[4-(5-Chloro-2-cyanophenyl)-5-methoxy-2-oxopyridin-1(2H)-yl]butanoyl}amino)-benzoyl]-L-threonine]	54 nM	93 nM
COc1cn(C(C[C@@H]2CCCCO2)C(=O)Nc2ccc(C(=O)OC(C)[C@H](N)C(=O)O)cc2)c(=O)cc1-c1cc(Cl)ccc1C#N (single isomer, unassigned) [Example 1]	2 nM	9.1 nM
CCC(C(=O)Nc1ccc(C(=O)OC[C@H](NC(=O)[C@H](C(C)C)N(C)C)C(=O)O)cc1)n1cc(OC)c(-c2cc(Cl)ccc2C#N)cc1=O (single isomer, unassigned) [Example 9, N,N-Dimethyl-L-valyl-O-[4-({2-[4-(5-chloro-2-cyanophenyl)-5-methoxy-2-oxopyridin-1(2H)-yl]butanoyl}amino)benzoyl]-L-serine]	63 nM	51 nM
CCC(C(=O)Nc1ccc(C(=O)OCCN2CCN(C)CC2)cc1)n1cc(OC)c(-c2cc(Cl)ccc2C#N)cc1=O (single isomer, unassigned) [Example 14, 2-(4-Methylpiperazin-1-yl)ethyl 4-({2-[4-(5-chloro-2-cyanophenyl)-5-methoxy-2-oxopyridin-1(2H)-yl]butanoyl}amino)benzoate]		38 nM
CCC(C(=O)Nc1ccc(C(=O)OC[C@](C)(N)C(=O)O)cc1)n1cc(OC)c(-c2cc(Cl)ccc2C#N)cc1=O (single isomer, unassigned) [Example 3, O-[4-({2-[4-(5-Chloro-2-cyanophenyl)-5-methoxy-2-oxopyridin-1(2H)-yl]butanoyl}amino)-benzoyl]-2-methyl-L-serine]	82 nM	60 nM
CCC(C(=O)Nc1ccc(C(=O)OCCC2CCNCC2)cc1)n1cc(OC)c(-c2cc(Cl)ccc2C#N)cc1=O (single isomer, unassigned) [Example 15, 2-(Piperidin-4-yl)ethyl 4-({2-[4-(5-chloro-2-cyanophenyl)-5-methoxy-2-oxopyridin-1(2H)-yl]butanoyl}amino)benzoate]	230 nM	44 nM
CCC(C(=O)Nc1ccc(C(=O)OC[C@H](NC(=O)C2(N(C)C)CC2)C(=O)O)cc1)n1cc(OC)c(-c2cc(Cl)ccc2C#N)cc1=O (single isomer, unassigned) [Example 8, O-[4-({2-[4-(5-Chloro-2-cyanophenyl)-5-methoxy-2-oxopyridin-1(2H)-yl]butanoyl}amino)-benzoyl]-N-{[1-(dimethylamino)cyclopropyl]carbonyl}-L-serine]	110 nM	55 nM
CCC(C(=O)Nc1ccc(C(=O)OC[C@H](NC(=O)C2CCCCN2C)C(=O)O)cc1)n1cc(OC)c(-c2cc(Cl)ccc2C#N)cc1=O (single isomer, unassigned) [Example 7]	91 nM	52 nM
CCC(C(=O)Nc1ccc(C(=O)OC[C@@H](C(=O)O)N2CCCC2)cc1)n1cc(OC)c(-c2cc(Cl)ccc2C#N)cc1=O (single isomer, unassigned) [Example 12]	26 nM	43 nM
CCC(C(=O)Nc1ccc(C(=O)O[C@H]2CN[C@@H](C(=O)O)C2)cc1)n1cc(OC)c(-c2cc(Cl)ccc2C#N)cc1=O (single isomer, unassigned) [Example 11]	260 nM	280 nM
CCC(C(=O)Nc1ccc(C(=O)OC[C@H](N)C(=O)O)cc1)n1cc(OC)c(-c2cc(Cl)ccc2C#N)cc1=O (single isomer, unassigned) [Example 4, O-[4-({2-[4-(5-Chloro-2-cyanophenyl)-5-methoxy-2-oxopyridin-1(2H)-yl]butanoyl}amino)-benzoyl]-L-serine]	54 nM	92 nM
CCC(C(=O)Nc1ccc(C(=O)O[C@H]2CCN[C@@H]2C(=O)O)cc1)n1cc(OC)c(-c2cc(Cl)ccc2C#N)cc1=O (single isomer, unassigned) [Example 10]	14 nM	91 nM
